Reference: article PMC12022909, “A Multicomponent Reaction-Based Platform Opens New Avenues in Aryl Hydrocarbon Receptor Modulation” (ACS Central Science, 2025)
Entries after “also recorded” stand apart in the source; their conditions may differ.

Experiments:
[1] = molecular target: T1, aryl hydrocarbon receptor (AhR) (Homo sapiens, UniProt P35869); test: AhR/XRE-dependent luciferase reporter gene assay in XRE-HepG2 cells; type: cell-based; details: XRE-HepG2 cells, 8 h; unit as in the supplements; read-out: AhR/XRE-dependent luciferase activity EC50
T1 construct: AhR-dependent reporter gene activity was determined in human HepG2 cells stably transfected with an XRE; endogenous in cells; host or cells: XRE-HepG2 (human HepG2 hepatoma cells stably carrying an XRE-luciferase plasmid)
T1 sequence (P35869 11-848): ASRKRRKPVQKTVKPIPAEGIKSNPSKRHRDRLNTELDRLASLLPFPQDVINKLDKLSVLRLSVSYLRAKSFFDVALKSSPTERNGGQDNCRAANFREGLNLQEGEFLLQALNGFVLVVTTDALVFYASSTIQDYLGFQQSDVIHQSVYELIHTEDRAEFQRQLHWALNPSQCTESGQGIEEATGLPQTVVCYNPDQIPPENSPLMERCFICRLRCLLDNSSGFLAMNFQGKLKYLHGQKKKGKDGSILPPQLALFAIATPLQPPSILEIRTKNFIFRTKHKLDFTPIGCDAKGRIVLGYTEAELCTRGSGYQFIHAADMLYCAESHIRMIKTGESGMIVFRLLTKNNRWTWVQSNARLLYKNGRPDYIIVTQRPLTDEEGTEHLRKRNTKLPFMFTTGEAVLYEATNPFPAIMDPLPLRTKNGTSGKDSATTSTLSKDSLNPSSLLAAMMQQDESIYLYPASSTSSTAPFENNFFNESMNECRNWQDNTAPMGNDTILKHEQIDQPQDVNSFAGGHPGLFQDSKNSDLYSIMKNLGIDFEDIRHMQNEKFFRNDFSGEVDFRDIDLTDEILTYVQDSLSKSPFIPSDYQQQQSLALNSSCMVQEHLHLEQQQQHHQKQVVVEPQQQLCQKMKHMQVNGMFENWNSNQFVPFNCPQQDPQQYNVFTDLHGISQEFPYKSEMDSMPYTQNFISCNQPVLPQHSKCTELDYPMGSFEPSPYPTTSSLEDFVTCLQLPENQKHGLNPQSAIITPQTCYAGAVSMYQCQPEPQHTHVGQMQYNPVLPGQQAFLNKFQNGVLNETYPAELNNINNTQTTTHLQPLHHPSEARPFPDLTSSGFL
Procedure: (f) AhR/XRE-dependent reporter gene activity results (EC50/μM).
Data are shown as mean ± SEM.
The human XRE -HepG2 reporter cell -line was a kind gift of K. Gradin and L. Poellinger (Karolinska Institute, Stockholm,
antibiotic/antimycotic solution, and 0.8 mg/ml G418. All cells were cultivated at 37 °C in a humidified atmosphere containing 5% CO 2.
AhR-dependent reporter gene activity was determined in human HepG2 cells stably transfected with an XRE -harboring luciferase plasmid (XRE-HepG2 cells). […] Luciferase activity was normalized to protein content.

[2] = molecular target: T2, AhR (Homo sapiens, UniProt P35869); test: Western blot of AhR in MCF7 cells; type: cell-based; details: 10 µM, 5 h
T2 construct: Degradation of endogenous AhR was further confirmed via Western blotting and global proteomics measurements in cells treated with 12b; host or cells: MCF7
T2 sequence (P35869 11-848): T1 sequence (P35869 11-848)
Procedure: Figure S30. Agonists induce degradation of AhR.
12b, 12c, and 12d at a concentration of 10 µM for 5h. The numbers on the Blot indicate the signal intensities of the bands relative to the Tubulin bands, normalized to DMSO treatment as quantified with Empiria Studio. […]
Cell culture and treatment […]
MCF7 cells were purchased from ATCC and grown in DMEM with 10% FCS and 1% penicillin/ streptomycin. […]
All cells were cultivated at 37 °C in a humidified atmosphere containing 5% CO 2.
Tapinarof (MedChemExpress, Monmouth Junction, NJ), benzo[a]pyrene (Sigma-Aldrich, Taufkirchen, Germany), TCDD (Amchro, Hattersheim am Main, Germany) and all compounds synthesized in this study were dissolved in dimethyl sulfoxide (DMSO; Roth). […]
Quantitative real-time PCR […]
• CYP1A1: […] (forward (5'>3')); […] (reverse (5'>3')).
• CYP1B1: […] (forward (5'>3')); […] (reverse (5'>3')).
• CCL26: […] (forward (5'>3')); […] (reverse (5'>3')).
• IL-19: […] (forward (5'>3')); […] (reverse (5'>3')).
• CXCL1: […] (forward (5'>3')); […] (reverse (5'>3')).
• β-actin: […] (forward (5'>3')); […] (reverse (5'>3')). […]
The assay was carried out as described earlier. Luciferase activity was normalized to protein content.
SDS-PAGE/Western blot analysis
Cells were lysed in RIPA buffer on ice and subsequently centrifuged for 15 min at 4 °C at maximum speed. Protein samples were separated by 10% and 12% SDS -polyacrylamide gel electrophoresis and blotted onto PVDF (GE Healthcare, Freiburg, Germany) or Nitrocellulose (BioRad #17 04158) membranes. Blots were blocked with 5% skim milk or bovine serum albumin in TBS -Tween-20 (0.1%) for or Intercept® (TBS) Blocking Buffer (LI -COR Biosciences) 1 h at room temperature and subsequently incubated overnight at 4 °C with primary antibodies. Blots were washed and then incubated for 1 h with a 1:5000 dilution of HRP -conjugated secondary antibodies in 5% bovine serum albumin in TBS -Tween-20 (0.1%) or anti-Mouse (Licor, IRDye® 680RD Goat anti -Mouse IgG, 1:10k dilution) or anti-Rabbit secondary antibody (Licor, IRDye® Goat anti -Rabbit IgG, 1:10k dilution) at room temperature. Bands were visualized using WesternBright ECL HRP substrate (Advansta, San Jose, CA) and a C -DiGit Western Blot Scanner (LI -COR Biotechnology, Lincoln, NE) or a Licor Odyssey CLx imager. Primary antibodies used in this study are as follows. AhR (Cat.No. 83200; Cell Signaling Technology, Leiden, The Netherlands). AIP (Cat.No. sc-59730; Santa Cruz Biotechnology, Dallas, TX). Cul4B (Cat.No. abx004735; Abbexa, Houston, TX). GAPDH (Cat.No. 2118; Cell Signaling Technology). Vinculin (Cat.No. 13901, Cell Signaling Technology). α - Tubulin (Abcam, ab7291, 1:10k dilution).
HaCaT-EV and HaCaT-shAhR cells were treated with either vehicle (DMSO) or 10 µM 12d for 0.5 h and 1 h. […]

[3] = test system: Jurkat cells; test: Cell viability (Annexin V-APC, flow cytometry) in Jurkat cells; type: cell-based; details: 24 h
Procedure: (§1) A phosphatidylserine exposure was used to determine cell viability. Cells were washed with PBS, pelleted, and then incubated with annexin binding buffer containing Annexin V-APC (Life Technologies) for 15 min in the dark. Then, samples were analyzed by flow cytometry using FACSCanto II and FACSDiva (BD Biosciences, Franklin Lakes, NJ, USA). Data represents the percentage of non - apoptotic cells (Ann -APC-).
(§2) The cytotoxicity of a selection of the synthesized compounds was assessed after 24 hours of treatment in two human cell lines, Jurkat and HEK293T, coming from either tumoral T-cell lymphocytes or non-tumoral embryonic kidney fibroblasts, respectively. […]
(§3) the pro-apoptotic activity was not significant below 10 µM for most compounds in both cell lines, except for 5i, 5k and 5l in both cell lines, as well as 9a in Jurkat and 5e HEK293T cells (Figure S35A-B).
(§4) Moreover, the cytotoxicity of compounds 4d, 5b, 5h, 8, 10, and 12d at a higher concentration (100 µM) was assessed in both cell lines, Jurkat and HEK293T. The cytotoxicity of compounds 5b, 5h, and 12d could not be properly tested as the compounds were not soluble […]
(§5) effects observed for compound 4d in Jurkat cells and compound 8 in HEK293T cells (Figure S35C).
(§6) Figure S35. A) Jurkat and B) HEK293T cells were treated with 1 and 10 µM doses of the corresponding compound for 24 hours. Indicated doses of fluorizoline were used as a positive control of cell death. C) Jurkat and HEK293T cells were treated with 100 µM of the corresponding compound for 24 hours. Viability was measured by flow cytometry, and it is expressed as the mean ± SEM (n = 3) of the percentage of non -apoptotic cells (Ann-APC-). * p < 0.05, ** p < 0.01 *** p < […]
(§7) (1 picture or pasted object on this page, not shown here)

[4] = test system: HEK293T cells; test: Cell viability (Annexin V-APC, flow cytometry) in HEK293T cells; type: cell-based; details: 24 h
Procedure: as §1, §2, §3, §4, §5, §6, §7

[5] = Solubility in the growing media during cytotoxicity testing; type: physicochemical; details: concentration of 100 µM
Procedure: as §1, §2, §3, §4, §5, §6, §7

[6] = test system: HaCaT cells; test: UVA phototoxicity, caspase 3 activity in HaCaT cells; type: cell-based, human; details: for UVA radiation-induced caspase activity (phototoxicity): HaCaT, 1 h, UVA 5 J/cm2
Procedure: Irradiation with UVA and caspase 3 activity measurement […]
culture media was exchanged with PBS and the cells were sham or UVA (5 J/cm2) irradiated using the BS-02 irradiation chamber (Opsytec Dr. Gröbel, Ettlingen Germany). Media was added to the cells and after 4 h incubation, caspase 3 activity was measured as described previously.[33] Protein quantification was done with the Bio-Rad DC protein assay kit (Bio-Rad Laboratories, Hercules, CA) according to the manufacturer protocol.
We compared the phototoxic potential of five of our test compounds (8, 10, 5b, 5h, 4b) as well as the FDA-approved AhR activator […]
induced caspase activity at a concentration of 100 nM (Figure S36A). At a 10-fold higher concentration (1 µM) two of the test compounds […]
Figure S36. […] For statistical analysis a two-way ANOVA (Tukey post-hoc) was performed and data are shown as mean ± SEM. (*, p ≤ 0.05). […]

EC50 [1] [nM]	AhR receptor proteolysis [2]	SMILES	cytotoxicity / pro-apoptotic activity at 100 µM [3]	cytotoxicity / pro-apoptotic activity at 100 µM [4]	solubility in the growing media [5]	overlap between effective and toxic concentrations [6]	UVA radiation-induced caspase activity (phototoxicity) ([6]; 100 nM)	UVA radiation-induced caspase activity (phototoxicity) ([6]; 1 µM)
380	induced receptor proteolysis	Cn1cc(-c2c3[nH]c4ccccc4c3cc3[nH]c4ccccc4c23)c2ccccc21 [5d]						
2740	induced receptor proteolysis	Cc1[nH]c2ccccc2c1-c1c2[nH]c3ccc(F)cc3c2cc2[nH]c3ccc(F)cc3c12 [5k]						
1310		Cn1c2ccccc2c2c(C3=C(O)CC(C)(C)CC3=O)c3c(cc21)c1ccccc1n3C [4d]	slight cytotoxic effects	minimal pro-apoptotic activity				
600	induced receptor proteolysis	COc1ccc2[nH]cc(-c3c4[nH]c5ccccc5c4cc4[nH]c5ccccc5c34)c2c1 [5a]						
260		CC(=O)Nc1ccccc1C(=O)c1c2[nH]c3ccccc3c2cc2[nH]c3ccccc3c12 [compound 10]	minimal pro-apoptotic activity	minimal pro-apoptotic activity	slight turbidity	minimal overlap	neither tapinarof nor our 6-ICZ compounds enhanced	did not show any signs of phototoxicity; also recorded: no phototoxicity
